Molecules are shown by their SMILES. pIC50: −log10 of the molar value.

As a reminder, the pIC50 is the negative decadic logarithm of the IC50, by convention in mol/L. Low values mean a high IC50, high ones a low IC50.

Chain of Protein mono-ADP-ribosyltransferase PARP14 (Q460N5 whole entry, the tested form may be a part): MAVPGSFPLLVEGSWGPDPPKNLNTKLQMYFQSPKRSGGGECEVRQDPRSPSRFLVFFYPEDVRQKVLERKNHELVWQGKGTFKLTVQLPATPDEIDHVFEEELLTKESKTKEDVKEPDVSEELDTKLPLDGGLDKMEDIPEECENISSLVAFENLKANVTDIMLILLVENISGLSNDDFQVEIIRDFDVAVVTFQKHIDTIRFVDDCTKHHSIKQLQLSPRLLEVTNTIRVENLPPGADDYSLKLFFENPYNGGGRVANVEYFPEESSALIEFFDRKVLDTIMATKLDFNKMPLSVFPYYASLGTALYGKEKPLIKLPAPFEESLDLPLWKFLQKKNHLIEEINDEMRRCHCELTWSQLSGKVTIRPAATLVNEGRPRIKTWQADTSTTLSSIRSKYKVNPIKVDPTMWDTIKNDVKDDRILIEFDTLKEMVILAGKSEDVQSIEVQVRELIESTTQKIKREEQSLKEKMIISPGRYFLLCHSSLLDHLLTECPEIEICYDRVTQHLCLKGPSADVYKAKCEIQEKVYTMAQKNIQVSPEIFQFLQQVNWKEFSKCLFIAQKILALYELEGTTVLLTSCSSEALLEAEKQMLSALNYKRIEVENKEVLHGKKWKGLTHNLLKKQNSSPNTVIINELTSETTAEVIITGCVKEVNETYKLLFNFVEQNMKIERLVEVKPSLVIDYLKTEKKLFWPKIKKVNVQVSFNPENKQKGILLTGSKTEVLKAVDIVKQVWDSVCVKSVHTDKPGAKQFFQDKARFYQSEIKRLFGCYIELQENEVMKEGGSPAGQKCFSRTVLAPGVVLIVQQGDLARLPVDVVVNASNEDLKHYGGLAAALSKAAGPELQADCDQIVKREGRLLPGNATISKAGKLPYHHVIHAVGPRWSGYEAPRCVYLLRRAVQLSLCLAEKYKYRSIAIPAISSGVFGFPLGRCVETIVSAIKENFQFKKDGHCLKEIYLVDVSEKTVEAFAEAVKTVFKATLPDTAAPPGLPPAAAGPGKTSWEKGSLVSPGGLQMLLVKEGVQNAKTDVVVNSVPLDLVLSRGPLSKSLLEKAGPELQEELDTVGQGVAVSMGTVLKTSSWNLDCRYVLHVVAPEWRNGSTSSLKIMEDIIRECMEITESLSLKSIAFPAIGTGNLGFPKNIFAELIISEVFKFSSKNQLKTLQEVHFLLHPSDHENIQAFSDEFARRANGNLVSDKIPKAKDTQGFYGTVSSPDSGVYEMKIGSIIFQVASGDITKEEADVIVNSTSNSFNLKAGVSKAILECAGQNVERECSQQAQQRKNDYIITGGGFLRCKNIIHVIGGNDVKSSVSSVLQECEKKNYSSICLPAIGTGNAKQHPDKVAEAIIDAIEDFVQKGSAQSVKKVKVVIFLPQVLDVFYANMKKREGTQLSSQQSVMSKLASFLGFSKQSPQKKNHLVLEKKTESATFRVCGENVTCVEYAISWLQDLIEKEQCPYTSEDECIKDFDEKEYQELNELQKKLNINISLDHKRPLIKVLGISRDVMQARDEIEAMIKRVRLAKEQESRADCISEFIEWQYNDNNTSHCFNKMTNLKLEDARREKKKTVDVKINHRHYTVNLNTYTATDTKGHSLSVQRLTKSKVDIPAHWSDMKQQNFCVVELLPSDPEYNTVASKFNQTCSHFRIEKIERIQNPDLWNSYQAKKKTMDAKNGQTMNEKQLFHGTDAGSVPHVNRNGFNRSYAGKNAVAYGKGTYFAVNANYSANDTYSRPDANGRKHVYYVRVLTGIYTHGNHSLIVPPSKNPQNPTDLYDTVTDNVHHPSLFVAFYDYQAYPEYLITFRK

The experiment has as its target Protein mono-ADP-ribosyltransferase PARP14 (Homo sapiens, UniProt Q460N5). Kind of experiment: Displacement of ARTK(Bio)QTARK(Aoa-RADP)S from His6-tagged PARP14 MD2 (A994 to N1191 residues) (unknown origin) expressed in bacterial expression system after 30 mins by AlphaScreen assay. (In general: In Alpha technology, singlet oxygen from a donor bead excites a nearby acceptor bead.)
In turn, `COc1ccc2[nH]c3c(-c4ccccc4NC(C)=O)cccc3c2c1` gave a pIC50 of under 4.30. In the case of `CC(=O)Nc1ccccc1-c1cccc2c3c([nH]c12)CCNC3` it was under 4.30; in that of `CC(=O)Nc1ccccc1-c1cccc2c(C(C)C)c[nH]c12`, 4.74.

`CC(Nc1ccccc1-c1cccc2c1[nH]c1ccccc12)C(F)(F)F` (racemic): the pIC50 is under 4.30.

For the origin of these results see ChEMBL document CHEMBL4219165, “Discovery of a novel allosteric inhibitor scaffold for polyadenosine-diphosphate-ribose polymerase 14 (PARP14) macrodomain 2” (Bioorg Med Chem, 2018).
